Assays:
MMP-2 [1] = assay: N-terminomic (TMT) analysis of MMP-treated HEK293 secretome: isotopic enrichment of novel N-termini; assay type: biochemical, human
Protocol: (§1) This was done to achieve a reasonable compromise between the false positive and false negative rates based on the statistical model developed by the authors. […] (See Methods for details).
(§2) HEK293 cells were seeded in 150-mm tissue culture dishes (Corning) and grown to confluence. The confluent cultures were washed with PBS several times to remove serum proteins and kept in serum-free DMEM supplemented with 1 μM GM6001 for 72 hours at 37 C, 5% CO2. The conditioned media was centrifuged at 10,000 x g for 30 minutes at 4 C and concentrated ~100-fold using Centricon Plus-70 (AMD Millipore) 3-kDa m.w. cut-off ultrafilter, and the buffer was exchanged to 50 mM HEPES pH 7.0 containing 150 mM NaCl and 10 mM CaCl2 (Reaction Buffer) using a PD-10 desalting column (GE Healthcare). Aliquots containing 240 μg total protein were incubated at 37 C in the presence of 750 nM MMP2 or 9 or the Reaction Buffer alone for 2 hours. Each reaction was carried out in duplicate. The reactions were stopped by addition of 20 mM EDTA and subjected to denaturation/reduction (4M Urea and 10 mM TCEP, 1 h, 22°C) and alkylation (20 mM iodoacetamide, 30 min, 22°C, in dark). […] The TMT-labeled samples were pooled together, and subjected to TCA precipitation (20% TCA, 16 h, 4°C). Each pellet was washed with -20°C acetone, recovered in 50 mM Tris-HCl pH 8.0, and then digested with trypsin/Lys-C (Promega) for 16 h at 37°C. Digestions were stopped with 0.2% TFA and centrifuged to remove insoluble material. The supernatants were then desalted using Sep-Pak C18 cartridge (50 mg), and then lyophilized.
(§3) Dried pooled sample was reconstituted in 20 mM ammonium formate pH ~10 and fractionated using a Waters Acquity BEH C18 column (2.1x 15 cm, 1.7 μm pore size) mounted on an M-Class Ultra Performance Liquid Chromatography (UPLC) system (Waters). […] A total of 32 fractions were collected and pooled in a non-contiguous manner into 16 total fractions. Pooled fractions were dried to completeness in a SpeedVac concentrator prior to mass spectrometry analysis.
(§4) Dried peptide fractions were reconstituted with 2% ACN-0.1% FA and analyzed by LC-MS/MS using a Proxeon EASY nanoLC system (Thermo Fisher Scientific) coupled to a Q-Exactive Plus mass spectrometer (Thermo Fisher Scientific). […] The mass spectrometer was operated in positive data-dependent acquisition mode. MS1 spectra were measured with a resolution of 70,000 (AGC target: 1e6; mass range: 350–1700 m/z).
(§5) The false discovery rate (FDR) filter for spectrum and protein identification was set to 1%. Carbamidomethylation of cysteines was searched as a fixed modification, while oxidation of methionines and N-terminal acetylation were searched as variable modifications. Enzyme was set to trypsin in a semispecific mode and a maximum of two missed cleavages was allowed for searching. To obtain quantification of the TMT-labeled N-termini, two independent searches were performed–one with TMT10plex MS2 N-terminal reporter quantification and the other for quantification of N-terminal and lysine sidechain.

MMP-9 [2] = assay: as above; assay type: biochemical, human; details: for isotopic enrichment (log2(ratio)) (acc.to MMP9): HEK293 proteins
Protocol: as §1, §2, §3, §4, §5

MMP-9 [3] = target: MMP-9 (Homo sapiens, UniProt P14780); assay: K(obs) of individual phage substrates (set of 1369); assay type: biochemical; details: MMP9; individual phage substrate of the set of 1369 peptides; dash in sequence marks cleavage position
MMP-2 [4] = target: T1, MMP-2 (Homo sapiens, UniProt P08253); assay: as above; assay type: biochemical; details: MMP2; individual phage substrate from the set of 1369 peptides; hyphen in the sequence marks the cleavage position
T1 sequence (P08253 110-660): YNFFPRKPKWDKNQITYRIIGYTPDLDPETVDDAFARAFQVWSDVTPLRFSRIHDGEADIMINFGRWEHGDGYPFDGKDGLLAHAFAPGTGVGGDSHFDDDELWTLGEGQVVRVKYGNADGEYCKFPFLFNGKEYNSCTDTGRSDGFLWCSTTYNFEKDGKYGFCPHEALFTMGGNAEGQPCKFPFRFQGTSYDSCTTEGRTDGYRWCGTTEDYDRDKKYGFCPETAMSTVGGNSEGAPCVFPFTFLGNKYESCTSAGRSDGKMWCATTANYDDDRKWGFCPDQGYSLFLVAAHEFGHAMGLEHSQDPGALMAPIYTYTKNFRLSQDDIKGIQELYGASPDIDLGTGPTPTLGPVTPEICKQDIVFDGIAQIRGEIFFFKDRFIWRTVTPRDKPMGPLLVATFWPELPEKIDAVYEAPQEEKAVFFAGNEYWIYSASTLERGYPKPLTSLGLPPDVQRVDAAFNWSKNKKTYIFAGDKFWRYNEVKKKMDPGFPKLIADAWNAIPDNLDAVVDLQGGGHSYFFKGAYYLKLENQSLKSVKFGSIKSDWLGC

MMP-9 [5] = assay: Substrate phage display with NGS: relative probability (RP) of P3-P1' tetramer clusters; assay type: biochemical, human; details: MMP9; RP of the substrate's P3-P1' tetramer, substrate phage display with NGS;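 also: ratio of tetramer probability after protease selection to that in naive phage library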

MMP-9 (Homo sapiens, UniProt P14780), sequence (P14780 94-707): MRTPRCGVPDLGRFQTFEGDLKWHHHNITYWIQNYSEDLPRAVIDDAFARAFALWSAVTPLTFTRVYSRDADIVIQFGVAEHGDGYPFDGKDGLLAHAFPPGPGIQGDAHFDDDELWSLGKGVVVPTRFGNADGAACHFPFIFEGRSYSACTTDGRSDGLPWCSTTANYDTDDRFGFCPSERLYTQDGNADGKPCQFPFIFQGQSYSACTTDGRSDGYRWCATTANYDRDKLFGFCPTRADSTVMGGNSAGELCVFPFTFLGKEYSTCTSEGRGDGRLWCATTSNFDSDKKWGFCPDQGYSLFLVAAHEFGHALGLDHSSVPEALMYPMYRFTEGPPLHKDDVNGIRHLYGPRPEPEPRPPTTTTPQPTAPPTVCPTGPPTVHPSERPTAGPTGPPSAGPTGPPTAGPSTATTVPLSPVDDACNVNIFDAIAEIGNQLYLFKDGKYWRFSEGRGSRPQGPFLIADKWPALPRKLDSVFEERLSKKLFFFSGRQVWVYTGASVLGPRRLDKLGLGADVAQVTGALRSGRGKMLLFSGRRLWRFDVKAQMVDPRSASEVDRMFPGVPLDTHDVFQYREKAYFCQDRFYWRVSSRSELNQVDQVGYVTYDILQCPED

Substance	isotopic enrichment (log2(ratio)) (acc.to MMP2) (MMP-2 [1]; MMP2 cleaved HEK293 proteins, common set of MMP2-9 selectome, LC-MS/MS)	isotopic enrichment (log2(ratio)) (acc.to MMP2) (MMP-2 [1]; MS detected cleavage sequence, HEK293 proteins, common MMP2-9 selectome)	isotopic enrichment (log2(ratio)) (acc.to MMP9) (MMP-9 [2]; MMP9, common set of MMP2-9 selectome, LC-MS/MS)	isotopic enrichment (log2(ratio)) (MMP-9 [2]; MMP9 cleavages in HEK293 cell proteins, determined by LC-MS/MS, log2(ratio) range (>3σ, 2σ-3σ, 1σ-2σ))	isotopic enrichment (log2(ratio)) (acc.to MMP9) (MMP-9 [2]; MS detected cleavage sequence, common MMP2-9 selectome)	Kobs (MMP-9 [3]) [M⁻¹ s⁻¹]	Kobs (MMP-2 [4]) [M⁻¹ s⁻¹]	relative probability (RP) (MMP-9 [5])
NFLSW-LYNDSP	1.971	1.971 log2(ratio)	1.57	1.57	1.57 log2(ratio)	–	–	–
QPPHA-FTASG	–	–	–	–	–	12792.1	12792.1	39.4048
GVPRA-VTASG	–	–	–	–	–	12792.1	6396.07	40.8515
YIPLV-YTASG	–	–	–	–	–	1239.69	0	9.417
YHPIS-LTASG	–	–	–	–	–	12792.1	12792.1	42.7806
GVPSK-LTASG	–	–	–	–	–	12792.1	12792.1	38.9571
HKIAL-LTASG	–	–	–	–	–	56.119	7386.83	0.8483
GMVLG-LHTAS	–	–	–	–	–	12792.1	12792.1	34.6877
MSLAT-LTASG	–	–	–	–	–	0	12792.1	0.7406
LIPTS-LTASG	–	–	–	–	–	12792.1	12792.1	31.9505
GHPSP-FTASG	–	–	–	–	–	0	12792.1	37.3217
GEPSA-YRTAS	–	–	–	–	–	12792.1	12792.1	46.6524
SGPYS-WQVTA	–	–	–	–	–	4613.14	1513.13	33.8051
VQLAY-FTASG	–	–	–	–	–	1030.73	12792.1	0.5079
RFPLK-VTASG	–	–	–	–	–	3438.54	0	22.8859
FDVWM-LTASG	–	–	–	–	–	1283.43	912.511	17.1619
VKPSG-VTASG	–	–	–	–	–	12792.1	12792.1	31.8733
FEPQR-MTASG	–	–	–	–	–	7815.03	690.17	31.7168
GRLLA-MHTAS	–	–	–	–	–	1112.44	2687.73	12.6533
IGVRQ-LTASG	–	–	–	–	–	12792.1	3536.02	23.9228
SGPRG-MKTTA	–	–	–	–	–	7815.03	1418.96	47.6962
LGPSH-YTASG	–	–	–	–	–	12792.1	12792.1	38.4805
RTPKG-LTASG	–	–	–	–	–	12792.1	12792.1	48.4124
GSPRN-LRTAS	–	–	–	–	–	12792.1	12792.1	48.2698
HRPEW-YTASG	–	–	–	–	–	4082.43	3741.87	25.7162

Source: article PMC7932537, “Quantitative profiling of protease specificity” (PLoS Computational Biology, 2021)
